Holding throughout (assay type): binding
Test [1] addresses kinases (KINOMEscan panel) (Homo sapiens, UniProt O75716). To be noted: kinase STK16; NEW KINOMEscan.
Test [2] concerns the target T1, kinases (KINOMEscan panel) (Homo sapiens, UniProt O00141).
T1 sequence (O00141 1-431): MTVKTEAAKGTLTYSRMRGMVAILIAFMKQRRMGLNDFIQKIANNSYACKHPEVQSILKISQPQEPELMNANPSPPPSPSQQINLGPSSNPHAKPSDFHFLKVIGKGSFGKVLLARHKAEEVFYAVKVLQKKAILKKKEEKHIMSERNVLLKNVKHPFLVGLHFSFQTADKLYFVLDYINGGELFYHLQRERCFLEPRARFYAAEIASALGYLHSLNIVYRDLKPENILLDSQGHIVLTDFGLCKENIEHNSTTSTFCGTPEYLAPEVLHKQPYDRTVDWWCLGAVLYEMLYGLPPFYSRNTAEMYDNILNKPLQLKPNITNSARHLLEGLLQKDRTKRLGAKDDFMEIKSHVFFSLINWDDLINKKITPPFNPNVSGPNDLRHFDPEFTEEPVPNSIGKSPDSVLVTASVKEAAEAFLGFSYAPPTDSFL
As to conditions: kinase SGK1; NEW KINOMEscan.

The target of test [3] is kinases (KINOMEscan panel) (Homo sapiens, UniProt Q9UKE5). To be noted: TNIK; NEW KINOMEscan.
Test [4] concerns the target T2, kinases (KINOMEscan panel) (Homo sapiens, UniProt Q8TDC3).
T2 sequence (Q8TDC3 1-778): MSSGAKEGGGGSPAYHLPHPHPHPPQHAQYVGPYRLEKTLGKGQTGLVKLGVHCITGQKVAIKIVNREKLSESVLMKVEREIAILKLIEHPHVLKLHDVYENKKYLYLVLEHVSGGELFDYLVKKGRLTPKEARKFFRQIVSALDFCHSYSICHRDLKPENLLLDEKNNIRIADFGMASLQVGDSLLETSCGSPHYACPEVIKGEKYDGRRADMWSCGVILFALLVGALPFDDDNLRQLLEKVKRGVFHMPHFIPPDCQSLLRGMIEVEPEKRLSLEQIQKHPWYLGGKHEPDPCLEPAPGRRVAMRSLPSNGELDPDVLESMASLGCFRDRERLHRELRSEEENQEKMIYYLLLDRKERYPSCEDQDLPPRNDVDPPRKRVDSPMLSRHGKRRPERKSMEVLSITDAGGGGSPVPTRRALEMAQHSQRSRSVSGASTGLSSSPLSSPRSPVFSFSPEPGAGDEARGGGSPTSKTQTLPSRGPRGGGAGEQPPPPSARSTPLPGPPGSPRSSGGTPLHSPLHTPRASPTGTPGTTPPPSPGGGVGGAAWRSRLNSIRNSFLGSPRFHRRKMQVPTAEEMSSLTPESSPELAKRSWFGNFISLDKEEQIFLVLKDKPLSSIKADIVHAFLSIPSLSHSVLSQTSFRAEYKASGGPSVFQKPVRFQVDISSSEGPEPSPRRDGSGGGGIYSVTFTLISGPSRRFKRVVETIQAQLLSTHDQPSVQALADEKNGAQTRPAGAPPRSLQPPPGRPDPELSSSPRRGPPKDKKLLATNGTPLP
To be noted: BRSK1; NEW KINOMEscan.

The target in test [5] is kinases (KINOMEscan panel) (Homo sapiens, UniProt P78362). To be noted: SRPK2; NEW KINOMEscan.
Test [6] addresses kinases (KINOMEscan panel) (Homo sapiens, UniProt Q15746). To be noted: kinase MYLK; NEW KINOMEscan.
The target of test [7] is kinases (KINOMEscan panel) (Homo sapiens, UniProt O95747). As to conditions: NEW KINOMEscan.
The target of test [8] is kinases (KINOMEscan panel) (Homo sapiens, UniProt Q8IU85). To be noted: kinase CAMK1D; NEW KINOMEscan.
Test [9] addresses kinases (KINOMEscan panel) (Homo sapiens, UniProt P51451). As to conditions: kinase BLK; NEW KINOMEscan.
Test [10] deals with T3, kinases (KINOMEscan panel) (Homo sapiens, UniProt Q59H18).
T3 sequence (Q59H18 1-835): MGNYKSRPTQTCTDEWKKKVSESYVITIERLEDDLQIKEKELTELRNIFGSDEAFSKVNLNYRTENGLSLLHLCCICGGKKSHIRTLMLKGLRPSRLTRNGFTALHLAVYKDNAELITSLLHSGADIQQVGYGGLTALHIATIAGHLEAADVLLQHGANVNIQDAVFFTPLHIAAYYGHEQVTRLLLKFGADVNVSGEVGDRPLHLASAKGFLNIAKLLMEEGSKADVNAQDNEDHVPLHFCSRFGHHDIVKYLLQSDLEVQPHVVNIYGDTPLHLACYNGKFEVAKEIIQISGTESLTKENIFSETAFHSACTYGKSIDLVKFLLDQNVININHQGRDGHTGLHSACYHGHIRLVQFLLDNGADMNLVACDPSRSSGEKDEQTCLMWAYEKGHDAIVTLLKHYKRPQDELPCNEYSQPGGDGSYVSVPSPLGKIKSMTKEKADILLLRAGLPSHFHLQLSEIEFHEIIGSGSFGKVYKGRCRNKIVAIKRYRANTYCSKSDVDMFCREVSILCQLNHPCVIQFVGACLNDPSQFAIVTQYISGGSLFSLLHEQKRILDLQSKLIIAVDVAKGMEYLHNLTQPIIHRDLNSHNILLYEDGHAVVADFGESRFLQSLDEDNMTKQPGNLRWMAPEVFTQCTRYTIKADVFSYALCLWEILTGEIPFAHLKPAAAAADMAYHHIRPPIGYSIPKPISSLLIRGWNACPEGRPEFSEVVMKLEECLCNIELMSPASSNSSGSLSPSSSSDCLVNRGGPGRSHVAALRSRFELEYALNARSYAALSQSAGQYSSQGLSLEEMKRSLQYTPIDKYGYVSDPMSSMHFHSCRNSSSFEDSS
As to conditions: kinase TNNI3K; NEW KINOMEscan.

Test [11] deals with kinases (KINOMEscan panel) (Homo sapiens, UniProt P31751). As to conditions: NEW KINOMEscan.
The target of test [12] is kinases (KINOMEscan panel) (Homo sapiens, UniProt P53778).
In test [13] the target is kinases (KINOMEscan panel) (Homo sapiens, UniProt P00533, T790M). As to conditions: kinase EGFR(T790M); NEW KINOMEscan.

Sequence of kinases (KINOMEscan panel) (Homo sapiens, UniProt Q15746) (Q15746 whole entry): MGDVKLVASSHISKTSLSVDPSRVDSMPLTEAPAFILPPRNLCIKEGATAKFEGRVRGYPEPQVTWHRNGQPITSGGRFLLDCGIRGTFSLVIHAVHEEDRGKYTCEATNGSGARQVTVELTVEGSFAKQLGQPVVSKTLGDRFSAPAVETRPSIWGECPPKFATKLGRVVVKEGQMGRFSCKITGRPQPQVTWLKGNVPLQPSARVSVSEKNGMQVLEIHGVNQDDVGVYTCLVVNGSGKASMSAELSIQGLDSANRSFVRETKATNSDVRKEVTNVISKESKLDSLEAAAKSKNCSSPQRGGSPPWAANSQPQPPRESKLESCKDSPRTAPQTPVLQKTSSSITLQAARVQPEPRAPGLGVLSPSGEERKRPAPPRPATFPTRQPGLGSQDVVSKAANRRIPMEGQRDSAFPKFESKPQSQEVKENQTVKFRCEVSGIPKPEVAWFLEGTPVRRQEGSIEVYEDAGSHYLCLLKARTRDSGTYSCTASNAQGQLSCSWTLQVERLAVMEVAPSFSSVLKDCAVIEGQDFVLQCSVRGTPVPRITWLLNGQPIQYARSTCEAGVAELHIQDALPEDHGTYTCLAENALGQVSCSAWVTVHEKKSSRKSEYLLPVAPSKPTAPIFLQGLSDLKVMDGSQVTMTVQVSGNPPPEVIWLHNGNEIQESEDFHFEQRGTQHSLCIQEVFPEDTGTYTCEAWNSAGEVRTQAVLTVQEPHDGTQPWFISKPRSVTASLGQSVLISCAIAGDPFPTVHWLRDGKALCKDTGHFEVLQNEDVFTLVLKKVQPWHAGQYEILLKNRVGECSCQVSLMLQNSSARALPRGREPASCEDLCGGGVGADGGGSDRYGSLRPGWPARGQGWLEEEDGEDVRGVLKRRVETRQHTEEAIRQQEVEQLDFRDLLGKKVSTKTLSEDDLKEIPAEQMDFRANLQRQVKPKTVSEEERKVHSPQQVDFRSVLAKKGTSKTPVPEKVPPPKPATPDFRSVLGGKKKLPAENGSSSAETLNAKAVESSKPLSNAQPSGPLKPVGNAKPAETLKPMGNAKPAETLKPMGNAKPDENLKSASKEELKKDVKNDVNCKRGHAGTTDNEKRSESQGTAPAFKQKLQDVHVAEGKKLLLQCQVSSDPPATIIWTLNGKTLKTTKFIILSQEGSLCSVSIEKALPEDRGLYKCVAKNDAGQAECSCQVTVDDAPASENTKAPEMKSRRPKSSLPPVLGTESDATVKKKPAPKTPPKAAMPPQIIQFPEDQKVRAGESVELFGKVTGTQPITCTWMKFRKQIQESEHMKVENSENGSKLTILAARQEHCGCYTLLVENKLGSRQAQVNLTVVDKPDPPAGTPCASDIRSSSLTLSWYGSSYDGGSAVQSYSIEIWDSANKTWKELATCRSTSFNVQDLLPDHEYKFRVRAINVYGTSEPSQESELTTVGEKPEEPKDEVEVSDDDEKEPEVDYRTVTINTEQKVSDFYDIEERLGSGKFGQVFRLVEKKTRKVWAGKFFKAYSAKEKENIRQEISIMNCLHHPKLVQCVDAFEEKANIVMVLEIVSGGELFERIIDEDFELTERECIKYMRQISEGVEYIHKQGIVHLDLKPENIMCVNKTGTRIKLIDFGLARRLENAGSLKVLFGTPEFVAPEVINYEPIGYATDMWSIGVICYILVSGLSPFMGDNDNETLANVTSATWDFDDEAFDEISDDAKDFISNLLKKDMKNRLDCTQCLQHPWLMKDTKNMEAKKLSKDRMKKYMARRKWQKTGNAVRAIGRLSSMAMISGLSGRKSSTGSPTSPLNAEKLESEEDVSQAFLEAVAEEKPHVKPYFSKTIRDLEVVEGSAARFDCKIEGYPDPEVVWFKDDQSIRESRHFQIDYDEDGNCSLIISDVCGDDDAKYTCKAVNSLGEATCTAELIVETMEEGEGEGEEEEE
Sequence of kinases (KINOMEscan panel) (Homo sapiens, UniProt Q8IU85) (Q8IU85 whole entry): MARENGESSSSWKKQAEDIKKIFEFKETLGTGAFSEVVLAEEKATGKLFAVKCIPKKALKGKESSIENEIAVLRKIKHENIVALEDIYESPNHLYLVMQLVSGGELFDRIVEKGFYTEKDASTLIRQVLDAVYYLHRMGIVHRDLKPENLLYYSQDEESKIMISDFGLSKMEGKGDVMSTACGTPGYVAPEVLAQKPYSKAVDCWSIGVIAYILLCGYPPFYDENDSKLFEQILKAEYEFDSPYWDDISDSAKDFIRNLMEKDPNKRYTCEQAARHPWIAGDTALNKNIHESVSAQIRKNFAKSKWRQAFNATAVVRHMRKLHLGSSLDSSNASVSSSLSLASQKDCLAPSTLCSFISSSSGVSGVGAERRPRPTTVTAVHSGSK
Sequence of kinases (KINOMEscan panel) (Homo sapiens, UniProt O75716) (O75716 whole entry): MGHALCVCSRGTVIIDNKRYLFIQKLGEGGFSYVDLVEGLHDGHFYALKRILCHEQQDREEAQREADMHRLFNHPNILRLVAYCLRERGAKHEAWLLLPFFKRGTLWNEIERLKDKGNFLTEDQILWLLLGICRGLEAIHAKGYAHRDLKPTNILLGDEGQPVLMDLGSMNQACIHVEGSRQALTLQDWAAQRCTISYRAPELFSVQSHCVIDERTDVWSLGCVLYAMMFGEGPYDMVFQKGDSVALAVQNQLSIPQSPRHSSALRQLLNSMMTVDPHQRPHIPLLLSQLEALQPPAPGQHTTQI
Sequence of kinases (KINOMEscan panel) (Homo sapiens, UniProt P51451) (P51451 whole entry): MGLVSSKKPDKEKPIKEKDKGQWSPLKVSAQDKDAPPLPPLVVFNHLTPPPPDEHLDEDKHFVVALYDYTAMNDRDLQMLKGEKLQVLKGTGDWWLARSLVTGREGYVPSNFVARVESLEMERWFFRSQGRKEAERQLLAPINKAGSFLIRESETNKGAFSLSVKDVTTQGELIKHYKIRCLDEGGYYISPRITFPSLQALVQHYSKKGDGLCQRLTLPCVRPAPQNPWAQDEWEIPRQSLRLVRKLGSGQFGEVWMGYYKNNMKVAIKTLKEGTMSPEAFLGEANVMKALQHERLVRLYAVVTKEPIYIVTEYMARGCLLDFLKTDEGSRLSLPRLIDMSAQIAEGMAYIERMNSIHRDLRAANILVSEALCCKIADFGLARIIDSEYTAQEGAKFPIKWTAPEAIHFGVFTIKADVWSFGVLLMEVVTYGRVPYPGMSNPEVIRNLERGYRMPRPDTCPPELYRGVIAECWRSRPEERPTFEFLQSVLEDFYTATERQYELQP
Sequence of kinases (KINOMEscan panel) (Homo sapiens, UniProt O95747) (O95747 whole entry): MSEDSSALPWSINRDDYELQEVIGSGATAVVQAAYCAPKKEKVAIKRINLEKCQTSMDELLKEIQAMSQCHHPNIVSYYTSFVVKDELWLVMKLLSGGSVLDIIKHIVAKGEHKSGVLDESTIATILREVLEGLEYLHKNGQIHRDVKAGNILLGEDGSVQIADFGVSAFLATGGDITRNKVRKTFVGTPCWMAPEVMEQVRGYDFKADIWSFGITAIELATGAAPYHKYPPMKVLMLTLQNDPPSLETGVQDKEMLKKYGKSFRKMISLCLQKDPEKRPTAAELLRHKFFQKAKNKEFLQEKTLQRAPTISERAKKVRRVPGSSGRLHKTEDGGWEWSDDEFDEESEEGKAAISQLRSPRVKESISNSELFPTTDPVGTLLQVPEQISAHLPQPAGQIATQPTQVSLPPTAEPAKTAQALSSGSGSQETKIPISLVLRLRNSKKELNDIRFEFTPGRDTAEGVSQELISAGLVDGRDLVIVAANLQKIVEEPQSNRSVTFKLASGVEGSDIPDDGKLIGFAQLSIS
Sequence of kinases (KINOMEscan panel) (Homo sapiens, UniProt P31751) (P31751 whole entry): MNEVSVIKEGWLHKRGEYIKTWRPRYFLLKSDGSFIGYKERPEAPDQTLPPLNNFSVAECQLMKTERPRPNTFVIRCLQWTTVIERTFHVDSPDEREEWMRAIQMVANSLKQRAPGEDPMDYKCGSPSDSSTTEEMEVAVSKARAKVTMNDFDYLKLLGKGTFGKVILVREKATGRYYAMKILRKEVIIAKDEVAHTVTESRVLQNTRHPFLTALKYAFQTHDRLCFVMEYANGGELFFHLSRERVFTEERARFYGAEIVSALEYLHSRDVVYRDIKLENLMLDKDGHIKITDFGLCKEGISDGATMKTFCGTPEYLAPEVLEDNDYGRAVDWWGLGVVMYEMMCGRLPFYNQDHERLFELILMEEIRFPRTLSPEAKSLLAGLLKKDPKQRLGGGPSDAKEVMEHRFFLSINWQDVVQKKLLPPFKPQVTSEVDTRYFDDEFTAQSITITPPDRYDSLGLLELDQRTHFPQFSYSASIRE
Sequence of kinases (KINOMEscan panel) (Homo sapiens, UniProt P53778) (P53778 whole entry): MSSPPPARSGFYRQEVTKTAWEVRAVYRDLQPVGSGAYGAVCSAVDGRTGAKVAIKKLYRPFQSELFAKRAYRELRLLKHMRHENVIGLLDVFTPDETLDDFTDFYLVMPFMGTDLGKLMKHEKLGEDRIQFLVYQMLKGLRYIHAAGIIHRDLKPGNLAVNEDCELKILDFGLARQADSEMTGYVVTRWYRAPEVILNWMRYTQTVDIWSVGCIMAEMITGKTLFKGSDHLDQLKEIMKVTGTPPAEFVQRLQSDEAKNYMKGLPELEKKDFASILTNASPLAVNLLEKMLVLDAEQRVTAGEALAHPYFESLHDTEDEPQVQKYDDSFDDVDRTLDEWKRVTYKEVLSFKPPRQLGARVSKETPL

With `Cc1cccc(-c2nc(N(C)c3ccc4ncsc4c3)c3ccccc3n2)n1` [NK-161], in [1], the “KINOMEscan STK16” value was 15. Besides, the “KINOMEscan SGK1” value in test [2] was found to be 14. In addition, the “KINOMEscan TNIK” value in test [3] is recorded as 0. The “KINOMEscan BRSK1” value in [4] is listed as 0. Moreover, the “KINOMEscan SRPK2” value in [5] is reported as 0. The “KINOMEscan MYLK” value in test [6] is on record as 3. In test [7], the “KINOMEscan OSXR1” value is reported as 25. For the same compound, the “KINOMEscan CAMK1D” value in test [8] amounted to 0. Also, the “KINOMEscan BLK” value in test [9] came out at 0. The “KINOMEscan TNNI3K” value in [10] worked out at 9. The “KINOMEscan AKT2” value in test [11] stood at 19. For the same compound, in test [12], the “KINOMEscan MAPK12/p38-gamma” value turned out to be 27. Also, the “KINOMEscan EGFR(T790M)” value in [13] worked out at 0.
With `Cc1cccc(-c2nc(Nc3ccc4nn(C)cc4c3)c3ccccc3n2)n1` [NK167], the “KINOMEscan STK16” value in test [1] came to 19. Further, in [2], the “KINOMEscan SGK1” value is recorded as 0. The “KINOMEscan TNIK” value in test [3] came to 0. The “KINOMEscan BRSK1” value in test [4] was 0. Moreover, the “KINOMEscan SRPK2” value in test [5] worked out at 0. Further, in test [6], the “KINOMEscan MYLK” value was determined as 19. The “KINOMEscan OSXR1” value in [7] is 11. The “KINOMEscan CAMK1D” value in test [8] is listed as 0. Moreover, the “KINOMEscan BLK” value in [9] was determined as 0. Moreover, the “KINOMEscan TNNI3K” value in test [10] is 6. Further, the “KINOMEscan AKT2” value in test [11] was found to be 28. In test [12], the “KINOMEscan MAPK12/p38-gamma” value stood at 43. The “KINOMEscan EGFR(T790M)” value in test [13] worked out at 0.

Values taken from article PMC9851200, “Multiparameter phenotypic screening for endogenous TFEB and TFE3 translocation identifies novel chemical series modulating lysosome function” (Autophagy, 2022).
